From US20260098017A1, “NOVEL AROMATIC RING DERIVATIVE CONTAINING AMIDE SUBSTITUTION AND USE THEREOF” (TIANJIN PHARMACEUTICAL BIOTECHNOLOGY CO., LTD., priority 2022, published 2026)

molecular target: Ba/F3 cell line expressing TYK2 (Homo sapiens, UniProt P29597, cells depend on it, form not given); experiment: In vitro cellular inhibition assay (Ba/F3 cell proliferation, CellTiter-Glo); type: cell-based; details: read-out: IC50 (the source's name)
Description: The inhibitory effect of the compounds of formula (I) according to the present invention on the TYK2 signaling pathway in cells was assessed using the following method:
Instrumentation: SpectraMax Paradigm reader.
Method: in this experiment, a Ba/F3 cell line expressing TYK2 was employed to assess the effect of the compounds on cell proliferation inhibition by measuring their effects on cell activity in vitro.
Procedure: a CellTiter-Glo buffer was thawed and placed aside till room temperature. A CellTiter-Glo substrate was placed aside till room temperature and dissolved with the buffer to prepare a CellTiter-Glo working solution. To a 96-well flat bottom transparent drug plate, 98 μL of cell culture medium and 2 μL of gradient diluted compound solution were added. The drug plate was placed aside for 10 min, and then 50 μL of the CellTiter-Glo working solution was added. The drug plate was subsequently shaken on an orbital shaker for 2 min and placed aside at room temperature for an additional 10 min. Finally, the luminescence signal was measured on the SpectraMax Paradigm reader.
Data Analysis: the cell proliferation inhibition rate data were processed using the following formula:
Inhibition Rate (Inh %)=100−(RLUDrug−RLUMin)/(RLUMax−RLUMin)×100%.
The inhibition rates of compounds with different concentrations were calculated in EXCEL, and then GraphPad Prism software was employed to plot inhibition rate curve and calculate relevant parameters, including maximum and minimum cell inhibition rates, IC50 values.

SMILES | GI50 [nM]
[2H]C([2H])([2H])NC(=O)c1nnc(NC(=O)C2CC2)cc1Nc1cccc(C(=O)Nc2ccccc2)c1OC [Example 1] | 5 to 10
[2H]C([2H])([2H])NC(=O)c1nnc(NC(=O)C2CC2)cc1Nc1cccc(C(=O)Nc2cccc(F)c2)c1OC [Example 6] | 5 to 10
[2H]C([2H])([2H])NC(=O)c1nnc(NC(=O)C2CC2)cc1Nc1cccc(C(=O)Nc2ccccc2F)c1OC [Example 7] | 5 to 10
[2H]C([2H])([2H])NC(=O)c1nnc(NC(=O)C2CC2)cc1Nc1cccc(C(=O)Nc2cccc(C)c2C)c1OC [Example 8] | 5 to 10
[2H]C([2H])([2H])NC(=O)c1nnc(NC(=O)C2CC2)cc1Nc1cccc(C(=O)Nc2cc(C)cc(C)c2)c1OC [Example 9] | 5 to 10
[2H]C([2H])([2H])NC(=O)c1nnc(NC(=O)C2CC2)cc1Nc1cccc(C(=O)Nc2ccccc2C)c1OC [Example 10] | 5 to 10
[2H]C([2H])([2H])NC(=O)c1nnc(NC(=O)C2CC2)cc1Nc1cccc(C(=O)Nc2cccc(C3CC3)c2)c1OC [Example 11] | 5 to 10
[2H]C([2H])([2H])NC(=O)c1nnc(NC(=O)C2CC2)cc1Nc1cccc(C(=O)Nc2cccc(C(F)(F)F)c2)c1OC [Example 12] | 5 to 10
[2H]C([2H])([2H])NC(=O)c1nnc(NC(=O)C2CC2)cc1Nc1cccc(C(=O)Nc2cccc(CC)c2)c1OC [Example 13] | 5 to 10
[2H]C([2H])([2H])NC(=O)c1nnc(NC(=O)C2CC2)cc1Nc1cccc(C(=O)Nc2cccc(OC)c2)c1OC [Example 14] | 5 to 10
[2H]C([2H])([2H])NC(=O)c1nnc(NC(=O)C2CC2)cc1Nc1cccc(C(=O)Nc2cccc(C#N)c2)c1OC [Example 15] | 5 to 10
[2H]C([2H])([2H])NC(=O)c1nnc(NC(=O)C2CC2)cc1Nc1cccc(C(=O)Nc2cccc(C(C)C)c2)c1OC [Example 16] | 5 to 10
[2H]C([2H])([2H])NC(=O)c1nnc(NC(=O)C2CC2)cc1Nc1cccc(C(=O)Nc2cccc(C(C)(C)C)c2)c1OC [Example 17] | 5 to 10
[2H]C([2H])([2H])NC(=O)c1nnc(NC(=O)C2CC2)cc1Nc1cccc(C(=O)Nc2ccc(CC)cc2)c1OC [Example 18] | 5 to 10
[2H]C([2H])([2H])NC(=O)c1nnc(NC(=O)C2CC2)cc1Nc1cccc(C(=O)Nc2ccc(C3CC3)cc2)c1OC [Example 19] | 5 to 10
[2H]C([2H])([2H])NC(=O)c1nnc(NC(=O)C2CC2)cc1Nc1cccc(C(=O)Nc2ccc(C(C)C)cc2)c1OC [Example 20] | 5 to 10
[2H]C([2H])([2H])NC(=O)c1nnc(NC(=O)C2CC2)cc1Nc1cccc(C(=O)Nc2ccc(C(C)(C)C)cc2)c1OC [Example 21] | 5 to 10
[2H]C([2H])([2H])NC(=O)c1nnc(NC(=O)C2CC2)cc1Nc1cccc(C(=O)Nc2ccc(C(F)(F)F)cc2)c1OC [Example 22] | 5 to 10
[2H]C([2H])([2H])NC(=O)c1nnc(NC(=O)C2CC2)cc1Nc1cccc(C(=O)Nc2ccc(C#N)cc2)c1OC [Example 23] | 5 to 10
[2H]C([2H])([2H])NC(=O)c1nnc(NC(=O)C2CC2)cc1Nc1cccc(C(=O)Nc2ccc(OC)cc2)c1OC [Example 24] | 5 to 10

SMILES | GI50 [nM]
[2H]C([2H])([2H])NC(=O)c1nnc(NC(=O)C2CC2)cc1Nc1cccc(C(=O)Nc2ccc(CC)c(C)c2)c1OC [Example 25] | 5 to 10
[2H]C([2H])([2H])NC(=O)c1nnc(NC(=O)C2CC2)cc1Nc1cccc(C(=O)Nc2ccc(C3CC3)c(C)c2)c1OC [Example 26] | 5 to 10
[2H]C([2H])([2H])NC(=O)c1nnc(NC(=O)C2CC2)cc1Nc1cccc(C(=O)Nc2ccc(C(C)C)c(C)c2)c1OC [Example 27] | 5 to 10
[2H]C([2H])([2H])NC(=O)c1nnc(NC(=O)C2CC2)cc1Nc1cccc(C(=O)Nc2ccc(C(C)(C)C)c(C)c2)c1OC [Example 28] | 5 to 10
[2H]C([2H])([2H])NC(=O)c1nnc(NC(=O)C2CC2)cc1Nc1cccc(C(=O)Nc2ccc(C(F)(F)F)c(C)c2)c1OC [Example 29] | 5 to 10
[2H]C([2H])([2H])NC(=O)c1nnc(NC(=O)C2CC2)cc1Nc1cccc(C(=O)Nc2ccc(C#N)c(C)c2)c1OC [Example 30] | 5 to 10
[2H]C([2H])([2H])NC(=O)c1nnc(NC(=O)C2CC2)cc1Nc1cccc(C(=O)Nc2ccc(OC)c(C)c2)c1OC [Example 31] | 5 to 10
[2H]C([2H])([2H])NC(=O)c1nnc(NC(=O)C2CC2)cc1Nc1cccc(C(=O)Nc2ccc(F)c(C)c2)c1OC [Example 32] | 5 to 10
[2H]C([2H])([2H])NC(=O)c1nnc(NC(=O)C2CC2)cc1Nc1cccc(C(=O)Nc2ccn(C)n2)c1OC [Example 33] | 5 to 10
[2H]C([2H])([2H])NC(=O)c1nnc(NC(=O)C2CC2)cc1Nc1cccc(C(=O)Nc2cn(C)cn2)c1OC [Example 35] | 5 to 10
[2H]C([2H])([2H])NC(=O)c1nnc(NC(=O)C2CC2)cc1Nc1cccc(C(=O)Nc2ncn(C)n2)c1OC [Example 36] | 5 to 10
[2H]C([2H])([2H])NC(=O)c1nnc(NC(=O)C2CC2)cc1Nc1cccc(C(=O)Nc2cc(C)ccn2)c1OC [Example 37] | 5 to 10
[2H]C([2H])([2H])NC(=O)c1nnc(NC(=O)C2CC2)cc1Nc1cccc(C(=O)Nc2ccnc(C)c2)c1OC [Example 39] | 5 to 10
[2H]C([2H])([2H])NC(=O)c1nnc(NC(=O)C2CC2)cc1Nc1cccc(C(=O)Nc2cccc(C)n2)c1OC [Example 40] | 5 to 10
[2H]C([2H])([2H])NC(=O)c1nnc(NC(=O)C2CC2)cc1Nc1cccc(C(=O)Nc2ncc(F)cn2)c1OC [Example 41] | 5 to 10
[2H]C([2H])([2H])NC(=O)c1nnc(NC(=O)C2CC2)cc1Nc1cccc(C(=O)Nc2ccc(C)cn2)c1OC [Example 43] | 5 to 10
[2H]C([2H])([2H])NC(=O)c1nnc(NC(=O)C2CC2)cc1Nc1cccc(C(=O)Nc2ccc(C)nc2)c1OC [Example 44] | 5 to 10
[2H]C([2H])([2H])NC(=O)c1nnc(NC(=O)C2CC2)cc1Nc1cccc(C(=O)Nc2ncc(C)cn2)c1OC [Example 45] | 5 to 10
[2H]C([2H])([2H])NC(=O)c1nnc(NC(=O)C2CC2)cc1Nc1cccc(C(=O)Nc2ccc(F)nc2)c1OC [Example 46] | 5 to 10
[2H]C([2H])([2H])NC(=O)c1nnc(NC(=O)C2CC2)cc1Nc1cccc(C(=O)Nc2cnc(F)nc2)c1OC [Example 47] | 5 to 10

SMILES | GI50 [nM]
[2H]C([2H])([2H])NC(=O)c1nnc(NC(=O)C2CC2)cc1Nc1cccc(C(=O)Nc2ccccn2)c1OC [Example 48] | 5 to 10
[2H]C([2H])([2H])NC(=O)c1nnc(NC(=O)C2CC2)cc1Nc1cccc(C(=O)Nc2cccnc2)c1OC [Example 49] | 5 to 10
[2H]C([2H])([2H])NC(=O)c1nnc(NC(=O)C2CC2)cc1Nc1cccc(C(=O)Nc2ccncc2)c1OC [Example 50] | 5 to 10
[2H]C([2H])([2H])NC(=O)c1nnc(NC(=O)C2CC2)cc1Nc1cccc(C(=O)Nc2ncccn2)c1OC [Example 51] | 5 to 10
[2H]C([2H])([2H])NC(=O)c1nnc(NC(=O)C2CC2)cc1Nc1cccc(C(=O)Nc2cncnc2)c1OC [Example 52] | 5 to 10
[2H]C([2H])([2H])NC(=O)c1cnc(NC(=O)C2CC2)cc1Nc1cccc(C(=O)Nc2ccccc2)c1OC [Example 53] | 5 to 10
[2H]C([2H])([2H])NC(=O)c1cnc(NC(=O)C2CC2)cc1Nc1cccc(C(=O)Nc2ccccc2C)c1OC [Example 56] | 5 to 10
[2H]C([2H])([2H])NC(=O)c1cnc(NC(=O)C2CC2)cc1Nc1cccc(C(=O)Nc2cccc(F)c2)c1OC [Example 58] | 5 to 10
[2H]C([2H])([2H])NC(=O)c1cnc(NC(=O)C2CC2)cc1Nc1cccc(C(=O)Nc2ccccc2F)c1OC [Example 59] | 5 to 10
[2H]C([2H])([2H])NC(=O)c1cnc(NC(=O)C2CC2)cc1Nc1cccc(C(=O)Nc2cccc(C)c2C)c1OC [Example 60] | 5 to 10
[2H]C([2H])([2H])NC(=O)c1cnc(NC(=O)C2CC2)cc1Nc1cccc(C(=O)Nc2cc(C)cc(C)c2)c1OC [Example 61] | 5 to 10
[2H]C([2H])([2H])NC(=O)c1cnc(NC(=O)C2CC2)cc1Nc1cccc(C(=O)Nc2cccc(C3CC3)c2)c1OC [Example 63] | 5 to 10
[2H]C([2H])([2H])NC(=O)c1cnc(NC(=O)C2CC2)cc1Nc1cccc(C(=O)Nc2cccc(C(F)(F)F)c2)c1OC [Example 64] | 5 to 10
[2H]C([2H])([2H])NC(=O)c1cnc(NC(=O)C2CC2)cc1Nc1cccc(C(=O)Nc2cccc(CC)c2)c1OC [Example 65] | 5 to 10
[2H]C([2H])([2H])NC(=O)c1cnc(NC(=O)C2CC2)cc1Nc1cccc(C(=O)Nc2cccc(OC)c2)c1OC [Example 66] | 5 to 10
[2H]C([2H])([2H])NC(=O)c1cnc(NC(=O)C2CC2)cc1Nc1cccc(C(=O)Nc2cccc(C#N)c2)c1OC [Example 67] | 5 to 10
[2H]C([2H])([2H])NC(=O)c1cnc(NC(=O)C2CC2)cc1Nc1cccc(C(=O)Nc2cccc(C(C)C)c2)c1OC [Example 68] | 5 to 10
[2H]C([2H])([2H])NC(=O)c1cnc(NC(=O)C2CC2)cc1Nc1cccc(C(=O)Nc2cccc(C(C)(C)C)c2)c1OC [Example 69] | 5 to 10
[2H]C([2H])([2H])NC(=O)c1cnc(NC(=O)C2CC2)cc1Nc1cccc(C(=O)Nc2ccc(CC)cc2)c1OC [Example 70] | 5 to 10
